According to patent US9403874B2, “Peptides and use thereof” (IL YANG PHARM. CO.,LTD., priority 2012, dated 2016):

Key:
Type in all cases: cell-based
Settings in all cases: 100 ng/me of peptide; EBV-infected B cells stimulated with anti-CD150; ELISA of culture supernatant
IL-12A = assay: Reduction of IL-12A secretion in activated B cells (ELISA)
Experimental: (§1) In order to determine the activity of the novel peptides synthesized in Example 1 for reducing the secretion of inflammatory cytokines, the activated pathogenic B cells were treated with each of the 18 types of synthesized novel peptides and the reduction in secretion of inflammatory cytokines from the B cells was monitored.
(§2) Specifically, in order to determine whether the novel peptides could weaken the pathogenic B cells which are involved in the development of disease symptoms, the in vitro B cells model which is similar to the joint infiltrative B cells of rheumatoid arthritis was used. The activated pathogenic B cell was generated by stimulating Ebstein Barr virus (EBV)-infected B cells with anti-CD150 antibodies, and the cells were treated with […] of each of the 18 types of novel peptide.
(§3) In order to confirm the effect of 18 types of novel peptides in reducing inflammatory cytokines, the secretion amount of various cytokines (IL-1A, IL-1B, IL-2, IL-4, IL-5, IL-6, IL-8, IL-10, IL-12A, IL-13, IL-17A, GM-CSF, IL-34) secreted from the activated B cells was measured. The supernatants of B cell culture were analyzed enzyme-linked immunosorbent assay (ELISA), and the difference in absorbance (450 nm-570 nm) of the color developing reagent was measured as test results. Based on the measured difference in absorbance (450 nm-570 nm) of the color developing reagent, the absorbance of cytokines secreted when treated with the 18 types of novel […] was calculated in percentage, while setting the absorbance corresponding to the cytokines secreted from the activated B cells stimulated by anti-CD150 as 100%.

IL-4 = assay: Reduction of IL-4 secretion in activated B cells (ELISA)
Experimental: as §1, §2, §3

IL-10 = assay: Reduction of IL-10 secretion in activated B cells (ELISA)
Experimental: as §1, §2, §3

IL-17A = assay: Reduction of IL-17A secretion in activated B cells (ELISA)
Experimental: as §1, §2, §3

IL-1B = assay: Reduction of IL-1B secretion in activated B cells (ELISA)
Experimental: as §1, §2, §3

IL-6 = assay: Reduction of IL-6 secretion in activated B cells (ELISA)
Experimental: as §1, §2, §3

GM-CSF = assay: Reduction of GM-CSF secretion in activated B cells (ELISA)
Experimental: as §1, §2, §3

IL-1A = assay: Reduction of IL-1A secretion in activated B cells (ELISA)
Experimental: as §1, §2, §3

IL-5 = assay: Reduction of IL-5 secretion in activated B cells (ELISA)
Experimental: as §1, §2, §3

IL-13 = assay: Reduction of IL-13 secretion in activated B cells (ELISA)
Experimental: as §1, §2, §3

IL-34 = assay: Reduction of IL-34 secretion in activated B cells (ELISA)
Experimental: as §1, §2, §3

IL-8 = assay: Reduction of IL-8 secretion in activated B cells (ELISA)
Experimental: as §1, §2, §3

IL-2 = assay: Reduction of IL-2 secretion in activated B cells (ELISA)
Experimental: as §1, §2, §3

Substance	Inhibition rate of each cytokine compared to CD150-stimulated EBV-t B cells (%) IL-12A (IL-12A) [%]	Inhibition rate of each cytokine compared to CD150-stimulated EBV-t B cells (%) IL-4 (IL-4) [%]	Inhibition rate of each cytokine compared to CD150-stimulated EBV-t B cells (%) IL-10 (IL-10) [%]	Inhibition rate of each cytokine compared to CD150-stimulated EBV-t B cells (%) IL-17A (IL-17A) [%]	Inhibition rate of each cytokine compared to CD150-stimulated EBV-t B cells (%) IL-1B (IL-1B) [%]	Inhibition rate of each cytokine compared to CD150-stimulated EBV-t B cells (%) IL-6 (IL-6) [%]	Inhibition rate of each cytokine compared to CD150-stimulated EBV-t B cells (%) GM-CSF (GM-CSF) [%]	Inhibition rate of each cytokine compared to CD150-stimulated EBV-t B cells (%) IL-1A (IL-1A) [%]	Inhibition rate of each cytokine compared to CD150-stimulated EBV-t B cells (%) IL-5 (IL-5) [%]	Inhibition rate of each cytokine compared to CD150-stimulated EBV-t B cells (%) IL-13 (IL-13) [%]	Inhibition rate of each cytokine compared to CD150-stimulated EBV-t B cells (%) IL-34 (IL-34) [%]	Inhibition rate of each cytokine compared to CD150-stimulated EBV-t B cells (%) IL-8 (IL-8) [%]	Inhibition rate of each cytokine compared to CD150-stimulated EBV-t B cells (%) IL-2 (IL-2) [%]
RDGRTD (SIS-1#17 peptide)	16.0	32.0	15.8	23.8	20.5	16.8	14.8	18.8	14.0	14.8	20.8	22.0	17.0
RDGRTDGRTD (SIS-1#8 peptide)	19.2	18.9	10.0	30.1	25.9	23.8	19.8	30.2	12.0	33.5	19.8	29.2	33.0
TDG (SIS-1#11 peptide)	6.8	19.5	4.2	6.3	2.7	8.1	4.2	6.0	10.8	5.9	7.2	4.2	3.2
RDGRT (SIS-1#16 peptide)	29.8	23.9	31.2	32.8	17.0	22.8	6.2	16.2	20.3	24.5	23.1	33.0	15.4
DGRTDG (SIS-1#9 peptide)	20.8	16.0	14.2	9.2	18.2	18.8	15.0	20.4	16.2	13.2	15.0	15.4	15.5
